The results in this text go back to PMC10046692 (Cancers, 2023).

A word on the IC50: it is the concentration that gives 50% inhibition.

Series [1] deals with T1, HDAC6 (Homo sapiens, UniProt Q9UBN7).
T1 construct: purchased BPS Bioscience (contract research organization that ran the assay)
T1 sequence (Q9UBN7 1-1215): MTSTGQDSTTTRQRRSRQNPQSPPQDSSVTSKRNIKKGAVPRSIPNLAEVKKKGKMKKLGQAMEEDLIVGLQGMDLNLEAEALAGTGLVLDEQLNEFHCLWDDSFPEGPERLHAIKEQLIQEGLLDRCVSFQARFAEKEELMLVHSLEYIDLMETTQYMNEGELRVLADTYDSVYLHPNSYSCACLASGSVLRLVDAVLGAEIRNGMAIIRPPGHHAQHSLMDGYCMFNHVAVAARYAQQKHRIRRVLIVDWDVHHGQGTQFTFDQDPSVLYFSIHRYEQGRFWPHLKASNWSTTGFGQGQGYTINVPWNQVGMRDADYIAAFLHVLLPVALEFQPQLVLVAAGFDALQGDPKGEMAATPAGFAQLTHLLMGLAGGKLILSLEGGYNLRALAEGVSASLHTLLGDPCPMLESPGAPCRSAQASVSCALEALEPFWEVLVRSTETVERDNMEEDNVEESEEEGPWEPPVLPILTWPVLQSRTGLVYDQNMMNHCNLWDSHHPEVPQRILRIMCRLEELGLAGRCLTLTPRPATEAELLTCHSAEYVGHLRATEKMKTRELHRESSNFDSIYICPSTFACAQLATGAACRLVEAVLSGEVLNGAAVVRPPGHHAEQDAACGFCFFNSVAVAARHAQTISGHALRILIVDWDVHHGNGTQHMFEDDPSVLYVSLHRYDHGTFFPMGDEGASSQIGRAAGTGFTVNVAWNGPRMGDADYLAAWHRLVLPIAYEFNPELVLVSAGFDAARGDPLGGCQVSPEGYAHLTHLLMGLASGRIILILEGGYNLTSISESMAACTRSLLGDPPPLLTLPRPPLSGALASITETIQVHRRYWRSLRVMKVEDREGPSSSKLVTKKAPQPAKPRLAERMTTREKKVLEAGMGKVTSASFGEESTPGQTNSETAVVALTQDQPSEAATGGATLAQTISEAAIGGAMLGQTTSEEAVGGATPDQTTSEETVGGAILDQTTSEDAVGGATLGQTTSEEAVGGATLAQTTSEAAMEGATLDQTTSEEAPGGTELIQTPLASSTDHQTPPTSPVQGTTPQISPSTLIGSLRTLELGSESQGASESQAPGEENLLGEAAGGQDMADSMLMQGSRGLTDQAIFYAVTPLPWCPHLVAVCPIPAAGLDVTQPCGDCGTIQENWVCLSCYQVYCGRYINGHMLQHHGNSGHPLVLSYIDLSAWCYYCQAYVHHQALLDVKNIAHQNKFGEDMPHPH
In words: HDAC inhibition, fluorescence-based assay (BPS Bioscience). The class given is biochemical. The note with it: HDAC6 versus HDAC1. How it is done:
In vitro HDAC inhibition was performed by the contract research organization (CRO) BPS Bioscience while an AR-binding assay was performed by Eurofins Panlabs. (St. Charles, MO, USA). These assays were performed through contract agreements with these CROs.

Series [2] deals with C4-2B cells. The series is described as follows: Annexin V-FITC / PI apoptosis assay. In kind it is cell-based, human. The following applies: p = 0.01. An excerpt: As previously described, apoptosis was detected using the annexin V-fluorescein isothiocyanate (FITC) versus propidium iodide (PI) assay (FITC Annexin V Apoptosis Detection Kit I, BD Pharminogen).
Series [3] relates to C4-2B xenograft tumors. In words: Subcutaneous xenograft study in nude mice. In kind it is in vivo. The note with it: 20 mg/kg b.w. orally, five days/week for four weeks. The protocol: (§1) All animals were maintained in germ-free environments, and the study was carried out per IACUC guidelines that the University of Louisville authorized. Athymic nude Balb/c mice (nu/nu) were obtained from The Jackson Laboratory at 6 weeks of age. C4-2B and 22Rv1 cells (1–1.5 × 10^6, approximately) were injected into separate flanks of the mice (n = 6) for subcutaneous tumor xenograft studies using a final volume of 100 μL of phosphate-buffered saline and Matrigel (1:1). Once the tumors reached ~50–100 mm^3, the mice were randomly divided into two groups; one group received a vehicle and the other groups received SB1-46 (20 mg/kg) orally for […] for 4 weeks. Mice were monitored twice weekly, and tumor volumes were measured once a week.
(§2) Finally, in a nude mice model, we evaluated the efficacy of orally administered SBI-46 in xenograft tumors from 22Rv1 and C4-2B cells. Athymic BALB/c nude mice were subcutaneously injected with 22Rv1 and C4-2B (1 × 10^6 cells), and when the tumors reached 50–100 mm^3, either the vehicle or SBI-46 (20 mg/kg b.w.) were given orally for five days/week for four weeks.

For series [4], the system named is 22Rv1 xenograft tumors. The series is described as follows: Subcutaneous xenograft study in nude mice. The note with it: 20 mg/kg b.w. orally, five days/week for four weeks. The class given is in vivo. How it is done:
as §1, §2

For series [5], the system named is AR-FL, AR-V7 and PSA expression in CRPC cells. The series is described as follows: Western blot of AR-FL, AR-V7 and PSA expression. In kind it is cell-based, Human.
Series [6] can be described thus: Toxicity observation in xenograft study. The following applies: xenograft nude mice, 20 mg/kg orally. In kind it is in vivo. The protocol:
as §1
It has been reported that the inhibition of AR-mediated survival signaling by small molecules results in either cell cycle arrest or the induction of apoptosis in CRPC cells. Our studies also observed the induction of pro-apoptotic machinery and concomitant downregulation of pro-survival signaling in SBI-46-treated CRPC cells.

Series [7] relates to C4-2B cells. The series is described as follows: Soft agar colony formation assay. The class given is cell-based, human. The note with it: p = 0.001. The text has this: (§3) The CytoSelectTM 96-well In Vitro Tumor Sensitivity Assay Kit was used to perform the colony formation assay to detect anchorage-independent growth (Cell Biolabs, Inc., San Diego, CA, USA). LNCaP, C4-2B, and 22Rv1 cells (5 × 10^3 cells) that had been exposed to either the vehicle or SBI-46 were harvested and used for the assay following the manufacturer’s instructions. Colonies were manually counted after being stained with 0.005% crystal violet after ten days.

Series [8] concerns VERO cells. The series is described as follows: cells. The class given is cell-based. The protocol: (§4) Human PCa cells (LNCaP and 22Rv1) and normal prostate epithelial (RWPE-1) and kidney (HEK-293 and VERO) cells were obtained from American […] (ATCC, Manassas, VA, USA). C4-2B was obtained from the ViroMed Laboratories (Minneapolis, MN). The cells were grown on a specified medium previously described. Dihydrotestosterone (DHT) (1 nM) (Cerilliant, TX, USA) studies were performed in phenol red-free RPMI1640 supplemented with 10% charcoal-stripped FBS (Gemini, West Sacramento, CA, USA).

Series [9] relates to HEK-293 cells. The series is described as follows: cells. The class given is cell-based. The protocol: as §4
The test system of series [10] is C4-2B cells. In words: Cell viability, Alamar blue assay. The class given is cell-based. The note with it: Homo sapiens; treated for 24 h; read-out: growth inhibition IC50, C4-2B. The protocol: (§5) The effect of the treatments on prostate cancer and normal prostate epithelial cells’ (LNCaP, 22Rv1, C4-2B, PC3, and RWPE1) viability was evaluated using the Alamar blue assay. Cells were seeded into 96-well plates, and after growing to 60–75% confluency, they were treated with vehicle control (DMSO, Sigma Aldrich, St. Louis, MO, USA) or various concentrations of SBI-46 in respective media for 24 h. At the termination of exposure, cells were incubated with 100 μL of 3% Alamar Blue solution in a complete growth medium at 37 °C for 2 h. Absorbance was measured, and data were analyzed following the manufacturer’s instructions (Life Technologies Corporation, Eugene, OR, USA).
Background: Resazurin is reduced to fluorescent resorufin, in cell work by metabolically active cells.

Series [11] concerns PC-3 cells. In words: Cell viability, Alamar blue assay. In kind it is cell-based. The following applies: treated for 24 h. How it is done:
as §5

Series [12] deals with 22Rv1 cells. The series is described as follows: Cell viability, Alamar blue assay. In kind it is cell-based. The note with it: Homo sapiens, treated for 24 h, read-out: growth inhibition IC50, 22Rv1. How it is done:
as §5

Series [13] relates to LNCaP cells. In words: Cell viability, Alamar blue assay. The class given is cell-based. The note with it: Homo sapiens, treated for 24 h, read-out: growth inhibition IC50, LNCaP. The protocol: as §5
The subject of series [14] is 22Rv1 cells. The series is described as follows: Soft agar colony formation assay. The class given is cell-based, Human. The following applies: p = 0.001.
From the text: as §3

Series [15] has as its system LNCaP cells. The series is described as follows: Soft agar colony formation assay. In kind it is cell-based, Human. The note with it: p = 0.001.
From the text: as §3

Series [16] has as its system acetylated H4 and tubulin in LNCaP cells. In words: Western blot of H4 and tubulin acetylation (intracellular HDAC inhibition). The following applies: 0.5 and 5 µM, 6 h. In kind it is cell-based, Human. How it is done:
To probe H4 and tubulin acetylation status, LNCaP cells were seeded into a 6-well plate at 1 × 10^6/well in RPMI for 24–48 h until the confluency reached 80%. […] Cells were treated for 6 h and scraped out of the well. The cells were washed with cold PBS three times and lysed with RIPA buffer (110 μL) (VWR, VWRVN653—100 mL) containing phosphatase inhibitor (Fisher Thermo, A32957, Waltham, MA, USA) and protease inhibitor (Fisher Thermo, A32955). The cell lysates were vortexed for 15 s, followed by sonication for 90 s. The lysates were then centrifuged at 14,000 rpm for 10 min, and the supernatants were collected. The total protein concentration was determined using a BCA protein assay kit (BioVision, K813-2500, Milpitas, CA, USA). Based on the results from the BCA assay, the lysates were diluted to make an equal protein concentration, and 20 μg of each lysate was loaded to each well of the TGX MIDI 4–20% gel (Biorad, cat. 5671093, Hercules, CA, USA) and ran at 150 V for 70 min. […]
(In general: In western blotting, separated proteins are transferred to a membrane and probed.)

The test system of series [17] is RWPE-1 cells. The class given is cell-based. The protocol:
as §5

Consider `CC1(C)C(=O)N(c2ccc(C#N)c(C(F)(F)F)c2)C(=O)N1Cc1ccc(-c2cn(CCCCCCCC(=O)NO)nn2)cc1F` [SBI-46], for which the “selectivity for HDAC6” value in series [1] is recorded as ~ 4 fold. In [2], the “induction of apoptosis (annexin V-FITC staining)” value came to 18%. Moreover, the “tumor volume and weight, C4-2B xenograft” value in [3] is listed as “significant decrease”. Further, the “tumor volume and weight, 22Rv1 xenograft” value in [4] is “significant decrease”. The “expressions of AR-FL and AR-V7” value in series [5] is “downregulated”. The “toxicity in vivo, gross pathological examination of vital organs” value in series [6] is given as “not toxic”. Moreover, the “colony-forming ability, C4-2B” value in [7] is “reduced the colony-forming ability”. The “toxicity in kidney cell line VERO” value in series [8] is on record as “no significant toxicity”. Also, the half-maximal inhibitory concentration (IC50) in series [8] (Chlorocebus sabaeus, Vero, Figure 1B) was 40 ± 4.57 µM; in series [9] (Homo sapiens, HEK293, Figure 1B), 16.4 ± 2.22 µM; in series [10], 480 nM; in [12] it was 560 nM; in [13], 500 nM. Moreover, the “toxicity in kidney cell line HEK-293” value in [9] is listed as “no significant toxicity”. In addition, the “effect on viability of AR-null PC-3 cells” value in series [11] was “not effective”. The “colony-forming ability, 22Rv1” value in series [14] is on record as “reduced the colony-forming ability”. The “colony-forming ability, LNCaP” value in [15] is reported as “reduced the colony-forming ability”. In addition, in series [16], the “acetylation status of H4 and α-tubulin” value is “dose-dependent upregulation of acetylated H4 and tubulin”. Besides, in series [17], the “toxicity in normal prostate epithelial cell line RWPE-1” value was “no significant toxicity”.
